The text below walks through data of patent US12637469B2, “1H-pyrazole derivative and application thereof as dual target inhibitor of Syk and VEGFR2” (Ocumension Therapeutics (Suzhou) Co., Ltd., priority 2020, dated 2026).

In this test the target is T1, Syk kinase (Homo sapiens, UniProt P43405).
T1 construct: purchased Invitrogen PV3857
Put plainly: In vitro inhibitory effect on Syk kinase (HTRF enzymatic experiment). In kind it is biochemical. Conditions: ATP 2 μM, read-out: IC50 (nM) for inhibition of Syk enzyme. An excerpt:
The interaction between the substrate and the enzyme was detected by HTRF, using the IC50 value of the compound as an indicator to evaluate the inhibitory effect of the compound on Syk kinase.
• Syk kinase (Invitrogen, PV3857) • DTT (Sigma #43815) • ATP (Sigma #A7699) • MgCl2 (Sigma #63020) • MnCl2 (Sigma #M1787) • EDTA (Invitrogen #15575-020) • HEPES Buffer (Invitrogen #15630-080) • HTRF® KinEASE™ TK (Cisbio #62TKOPEC, 20000 tests) • Low volume, 384-well, white polystyrene plate (Greiner #784075) • 384 Well Microplates (Greiner #781946) • Centrifuge (Eppendorf #5810R) • Pipette (Eppendorf) • Pipette (Greiner) • Pipette gun (Eppendorf) • Mutidorp Pipette • POD 810 Plate Assembler Automatic Microplate Pretreatment System • Envision Reader • Experimental Steps and Methods: • a) Compound dilution and plate-making: • 1) The compound powder was weighed, dissolved in a certain amount of DMSO at an initial concentration of 10 mM. • 2) The compound was diluted to a concentration of 0.74 mM, and plated with POD18, 135 nL per well, the starting compound concentration was 10 μM, and there were 11 concentration points, with 3-fold descending serial dilutions. • b) Enzyme-substrate reaction stage: • 1) Preparation and dilution of the experimental buffer: the 5×HTRF Buffer in the kit was diluted to 1×, and specified amounts of DTT and MgCl2 solutions were added for use. • 2) SYK enzyme reaction solution was prepared with 1×HTRF Buffer so that the final reaction concentration of SYK kinase was 0.0156 ng/μL. • 3) TK-Substrate-biotin/ATP mixture was prepared so that the final substrate concentration was controlled at 0.2 μM. ATP concentration was controlled at 2 μM. • 4) The solution and the mixture were added with a Mutidorp pipette, SYK enzyme solution and TK-Substrate-biotin/ATP mixture were each added 5 μL per well, and incubated with 23 solution for 1 hour. • c) Detection stage: • 1) 13.33 mL of ethylenediaminetetraacetic acid solution was added to the detection buffer of the kit, and specified amounts of Eu-labeled antibody and XL-665 were added to prepare the detection solution. • 2) The solution was added with a Mutidorp pipette, 10 μL of detection solution per well, and incubated with 23 solution for 1 hour. The reaction of the enzyme and substrate mixture was stopped. • 3) After centrifugation, the reading was obtained on Envision. • d) Data analyzation: the data was analyzed using XL-Fit and the IC50 value of the compound was calculated.
On the technique in general: In TR-FRET formats the signal depends on donor and acceptor labels being close together.

In general, IC50 refers to the concentration needed to halve the response being measured. Regarding `c1cn2c(n1)c(Nc1ccc(N3CCOCC3)cc1)nc1ccc(-c3cn[nH]c3)cc12` [Compound 1], the IC50 turned out to be 15 nM.
